The values that follow come from patent US20040138109A1, “Potent inhibitor of HCV serine protease” (Boehringer Ingelheim Pharmaceuticals, Inc., priority 2002, published 2004).

Molecules are shown by their SMILES.

The target in data set [1] is NS3 serine protease of HCV genotype 1a (Hepatitis C virus genotype 1a, UniProt P27958). The data set can be described thus: Steady state velocity analysis with NS3 serine protease, HCV genotype 1a. The class given is biochemical. Conditions: non-covalent, competitive mode of inhibition, read-out: Inhibitor constant (Ki). From the text:
(§1) A distinguishing feature of the Compound (1) inhibitor series is the presence of a C-terminal carboxylic acid functionality.

Data set [2] deals with NS3 serine protease of HCV genotype 1b (Hepatitis C virus genotype 1b, UniProt P26663). The data set can be described thus: Steady state velocity analysis with NS3 serine protease, HCV genotype 1b. The conditions noted are these: non-covalent, competitive mode of inhibition, read-out: Inhibitor constant (Ki). The format is biochemical.
Sequence of NS3 serine protease of HCV genotype 1b (P26663 1027-1657): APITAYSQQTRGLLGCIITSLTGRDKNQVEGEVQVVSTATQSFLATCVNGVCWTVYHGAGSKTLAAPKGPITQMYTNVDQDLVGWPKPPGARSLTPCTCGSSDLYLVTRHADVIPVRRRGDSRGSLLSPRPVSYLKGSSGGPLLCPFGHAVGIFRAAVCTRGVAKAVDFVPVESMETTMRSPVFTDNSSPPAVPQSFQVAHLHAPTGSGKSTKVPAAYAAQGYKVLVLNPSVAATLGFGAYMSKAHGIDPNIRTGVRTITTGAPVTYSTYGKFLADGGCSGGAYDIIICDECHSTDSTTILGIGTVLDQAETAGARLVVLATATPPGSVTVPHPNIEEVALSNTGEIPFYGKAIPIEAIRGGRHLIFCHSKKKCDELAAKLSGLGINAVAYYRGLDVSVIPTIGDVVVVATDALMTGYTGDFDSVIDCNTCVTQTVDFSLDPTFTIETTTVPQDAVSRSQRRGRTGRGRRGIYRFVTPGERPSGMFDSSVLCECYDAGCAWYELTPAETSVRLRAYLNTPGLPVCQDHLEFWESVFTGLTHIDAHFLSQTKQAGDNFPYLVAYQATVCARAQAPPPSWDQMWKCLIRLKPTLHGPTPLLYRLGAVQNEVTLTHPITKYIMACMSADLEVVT
Sequence of NS3 serine protease of HCV genotype 1b (P26663 1658-1711): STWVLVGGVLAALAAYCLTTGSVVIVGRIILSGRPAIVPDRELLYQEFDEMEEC
Source text: as §1

In data set [3] the test system is HCV RNA replication. The data set can be described thus: HCV RNA replication in the replicon cell model system. The class given is cell-based. The conditions noted are these: human cells.
Source text: as §1
For orientation: Replicon systems follow genome replication, usually without infectious particles.

Data set [4] concerns NS3 protease-dependent polyprotein processing. The data set is described as follows: NS3 protease-dependent polyprotein processing in HCV replicon-containing cells. The class given is cell-based.
Source text: as §1

Data set [5] is described as follows: Oral bioavailability in animal species. The class given is in vivo. Conditions: various animal species.
Source text: as §1

Data set [6] in a line: Single rising dose trial in healthy male subjects. The format is in vivo, human. The procedure: (§2) In a first single rising dose trial in healthy male subjects the tolerability and pharmacokinetic parameters of Compound (1) were investigated. […] The degree of viral load reduction upon administration of Compound (1) was a significant and unexpected finding, with some patients even experiencing up to a 3 log reduction in viral load within 48 hours after the first administration of Compound (1).

The test system of data set [7] is HCV. The data set can be described thus: Clinical study in patients with chronic HCV infection, viral load. The class given is in vivo, human. The conditions noted are these: HCV infected patients, oral formulation, within 48 hours after first administration, some patients. The procedure: as §2
The term “viral load” with respect to HCV in a mammal means the number of HCV mRNA genome copies per ml of serum present in the mammal. The viral load value can be measured, for example, by mRNA-PCR quantitation in blood samples using Cobas Amplicor HCV Monitor v 2.0 (Roche Diagnostics); Amplicor HCV v 2.0, Roche Diagnostics; HCV Transcription Mediated Amplification (TMA) assay, Bayer Diagnostics; HCV RNA Qualitative Testing (TMA) assay, Bayer Diagnostics; the HCV branched DNA (bDNA) assay version 3.0, Bayer Diagnostics; Versant HCV RNA 3.0 Assay (bDNA), Bayer Diagnostics, and Superquant assay, National Genetics Institute (Los Angeles, Calif.).
The degree of viral load reduction upon the administration of Compound (1) was a significant and unexpected finding, with some patients even experiencing up to a 3 log reduction in viral load within 48 hours after the first administration of Compound (1). […]

A short description of data set [8]: Light sensitivity of the oral solution. The format is physicochemical. The conditions noted are these: solution in PEG 400:Ethanol 80:20 w/w. The source says:
Keep away from direct sunlight and cover with aluminium foil whenever possible.

Sequence of NS3 serine protease of HCV genotype 1a (P27958 1027-1657): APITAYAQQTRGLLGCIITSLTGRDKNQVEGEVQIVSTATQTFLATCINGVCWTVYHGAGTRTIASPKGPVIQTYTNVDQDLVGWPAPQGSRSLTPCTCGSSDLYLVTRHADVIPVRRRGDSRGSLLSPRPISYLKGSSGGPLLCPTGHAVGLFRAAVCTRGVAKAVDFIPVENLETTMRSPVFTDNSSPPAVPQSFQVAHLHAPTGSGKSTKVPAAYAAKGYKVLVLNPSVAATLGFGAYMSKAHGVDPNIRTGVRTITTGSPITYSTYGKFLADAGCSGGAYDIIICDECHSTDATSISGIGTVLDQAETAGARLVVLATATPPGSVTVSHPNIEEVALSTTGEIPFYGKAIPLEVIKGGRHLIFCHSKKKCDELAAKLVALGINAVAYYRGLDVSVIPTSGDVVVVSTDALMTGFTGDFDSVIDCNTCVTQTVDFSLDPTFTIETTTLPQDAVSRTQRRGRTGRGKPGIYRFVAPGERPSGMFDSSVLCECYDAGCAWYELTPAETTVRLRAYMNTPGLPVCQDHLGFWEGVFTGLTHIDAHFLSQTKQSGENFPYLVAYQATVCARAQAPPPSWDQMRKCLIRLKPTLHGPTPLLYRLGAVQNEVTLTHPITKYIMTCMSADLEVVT
Sequence of NS3 serine protease of HCV genotype 1a (P27958 1658-1711): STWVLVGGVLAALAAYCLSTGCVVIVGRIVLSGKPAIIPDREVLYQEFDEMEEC

For `COc1ccc2c(O[C@@H]3C[C@H]4C(=O)N[C@]5(C(=O)O)C[C@H]5/C=C\CCCCC[C@H](NC(=O)OC5CCCC5)C(=O)N4C3)cc(-c3csc(NC(C)C)n3)nc2c1` [Compound (1)], the Ki in data set [1] was 0.3 nM; in data set [2], 0.66 nM. Moreover, the “Inhibition of HCV RNA replication” value in data set [3] is listed as “low nanomolar inhibition”. Moreover, the “Ability to block NS3 protease-dependent polyprotein processing” value in data set [4] is “block NS3 protease-dependent polyprotein processing”. In addition, the Oral bioavailability entry in data set [5] was “orally bioavailable”. The Tolerability result in data set [6] is listed as “well tolerated up to 2000 mg”. In data set [7], the “Reduction in viral load” value is ≤ 3 log. In addition, in data set [8], the Light sensitivity result is reported as “light sensitive”.
